From ChEMBL document CHEMBL6103586, “Optimization of pyrazole/1,2,4-triazole as dual EGFR/COX-2 inhibitors: Design, synthesis, anticancer potential, apoptosis induction and cell cycle analysis” (Eur J Med Chem, 2025)

How the values were obtained:
[1] = tested on: MCF7; experiment: Cytotoxicity against human MCF7 cells assessed as cell growth inhibition measured after 24 hrs by spectrophotometry based MTT assay; type: functional; settings: MCF7, 24 h
[2] = tested on: HT-29; experiment: Cytotoxicity against human HT-29 cells assessed as cell growth inhibition measured after 24 hrs by spectrophotometry based MTT assay; type: functional; settings: HT-29, 24 h
[3] = tested on: A549; experiment: Cytotoxicity against human A549 cells assessed as cell growth inhibition measured after 24 hrs by spectrophotometry based MTT assay; type: functional; settings: A549, 24 h
[4] = tested on: MCF7; experiment: Induction of cell cycle arrest in human MCF-7 cells assessed as accumulation of cells at S phase cells at 1.207 uM incubated for 24 hrs by propidium iodide based flow cytometry analysis (reference value: 23.88%); type: functional
[5] = molecular target: Epidermal growth factor receptor (Homo sapiens, UniProt P00533); experiment: Inhibition of human wild-type EGFR by Kinase-Glo assay
Epidermal growth factor receptor (Homo sapiens, UniProt P00533), sequence (P00533 whole entry): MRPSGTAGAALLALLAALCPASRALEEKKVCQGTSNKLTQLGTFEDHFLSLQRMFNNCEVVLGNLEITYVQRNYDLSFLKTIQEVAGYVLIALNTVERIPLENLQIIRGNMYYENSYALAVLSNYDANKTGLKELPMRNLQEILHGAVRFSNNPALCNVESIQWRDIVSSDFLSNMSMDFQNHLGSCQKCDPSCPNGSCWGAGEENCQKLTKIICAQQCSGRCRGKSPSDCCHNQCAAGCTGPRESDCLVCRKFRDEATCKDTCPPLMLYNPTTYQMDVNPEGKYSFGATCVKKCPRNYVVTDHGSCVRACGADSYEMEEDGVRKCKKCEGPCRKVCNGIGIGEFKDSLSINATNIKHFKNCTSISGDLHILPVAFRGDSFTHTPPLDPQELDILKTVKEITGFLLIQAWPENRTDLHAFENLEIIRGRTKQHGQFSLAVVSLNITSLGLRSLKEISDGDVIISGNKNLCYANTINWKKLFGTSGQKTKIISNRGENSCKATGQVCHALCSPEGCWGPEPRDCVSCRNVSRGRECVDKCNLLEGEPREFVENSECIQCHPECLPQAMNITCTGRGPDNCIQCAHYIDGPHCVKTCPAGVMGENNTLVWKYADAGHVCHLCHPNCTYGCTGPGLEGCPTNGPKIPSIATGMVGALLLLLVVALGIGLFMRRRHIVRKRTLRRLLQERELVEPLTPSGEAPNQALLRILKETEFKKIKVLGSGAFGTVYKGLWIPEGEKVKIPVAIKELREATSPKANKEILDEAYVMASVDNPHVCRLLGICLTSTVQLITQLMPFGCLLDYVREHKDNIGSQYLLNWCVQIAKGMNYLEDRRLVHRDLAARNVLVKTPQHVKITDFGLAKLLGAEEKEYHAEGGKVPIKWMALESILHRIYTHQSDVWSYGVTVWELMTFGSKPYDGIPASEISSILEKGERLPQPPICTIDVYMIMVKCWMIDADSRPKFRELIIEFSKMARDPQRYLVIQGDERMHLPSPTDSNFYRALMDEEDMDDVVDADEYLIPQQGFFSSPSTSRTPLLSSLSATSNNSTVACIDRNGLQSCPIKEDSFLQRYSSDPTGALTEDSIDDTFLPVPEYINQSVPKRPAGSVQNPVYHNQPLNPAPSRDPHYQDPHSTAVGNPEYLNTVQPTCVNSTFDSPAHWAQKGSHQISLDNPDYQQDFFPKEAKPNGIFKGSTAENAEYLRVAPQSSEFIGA

[6] = molecular target: Epidermal growth factor receptor (Homo sapiens, UniProt P00533, T790M); experiment: Inhibition of human EGFR T790M mutant by Kinase-Glo assay
Epidermal growth factor receptor (Homo sapiens, UniProt P00533, T790M), sequence (P00533 25-1210 T790M limits assumed): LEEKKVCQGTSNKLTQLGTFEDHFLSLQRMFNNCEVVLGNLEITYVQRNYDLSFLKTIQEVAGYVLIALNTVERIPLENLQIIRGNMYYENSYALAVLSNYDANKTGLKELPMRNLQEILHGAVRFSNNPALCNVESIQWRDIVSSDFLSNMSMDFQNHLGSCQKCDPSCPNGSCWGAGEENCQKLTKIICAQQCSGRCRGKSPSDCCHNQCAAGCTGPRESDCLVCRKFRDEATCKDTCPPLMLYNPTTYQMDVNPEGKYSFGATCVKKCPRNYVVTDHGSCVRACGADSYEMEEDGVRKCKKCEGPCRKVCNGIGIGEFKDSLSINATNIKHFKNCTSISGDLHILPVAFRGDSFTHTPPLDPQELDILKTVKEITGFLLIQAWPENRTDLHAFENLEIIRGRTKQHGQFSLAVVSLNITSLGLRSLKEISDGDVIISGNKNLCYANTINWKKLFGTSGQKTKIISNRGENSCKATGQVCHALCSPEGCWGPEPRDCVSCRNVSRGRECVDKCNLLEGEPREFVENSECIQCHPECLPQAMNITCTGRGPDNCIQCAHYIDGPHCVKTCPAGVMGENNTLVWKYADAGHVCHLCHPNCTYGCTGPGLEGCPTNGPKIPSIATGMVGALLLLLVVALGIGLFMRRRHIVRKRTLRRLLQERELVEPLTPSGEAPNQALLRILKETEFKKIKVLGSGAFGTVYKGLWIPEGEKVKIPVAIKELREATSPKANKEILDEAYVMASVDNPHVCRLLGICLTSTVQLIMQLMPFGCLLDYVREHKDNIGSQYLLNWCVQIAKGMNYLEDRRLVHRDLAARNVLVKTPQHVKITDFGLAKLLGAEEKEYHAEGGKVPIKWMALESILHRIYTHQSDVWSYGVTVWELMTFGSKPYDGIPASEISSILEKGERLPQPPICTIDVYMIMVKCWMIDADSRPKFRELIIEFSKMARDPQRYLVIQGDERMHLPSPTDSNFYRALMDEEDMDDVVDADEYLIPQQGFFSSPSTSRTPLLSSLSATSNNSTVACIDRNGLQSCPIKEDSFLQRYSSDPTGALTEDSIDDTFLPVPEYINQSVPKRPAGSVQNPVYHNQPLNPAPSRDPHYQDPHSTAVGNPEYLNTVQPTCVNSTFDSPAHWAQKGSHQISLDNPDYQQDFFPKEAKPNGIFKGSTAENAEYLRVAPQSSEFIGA

[7] = tested on: MCF7; experiment: Induction of apoptosis in human MCF7 cells assessed as late apoptotic cells at 1.207 uM incubated for 24 hrs by Annexin V-FITC/PI staining based flow cytometry analysis (reference value: 0.11%); type: functional
[8] = tested on: MCF7; experiment: Induction of cell cycle arrest in human MCF-7 cells assessed as accumulation of cells at G0/G1 phase cells at 1.207 uM incubated for 24 hrs by propidium iodide based flow cytometry analysis (reference value: 66.25%); type: functional
[9] = tested on: MCF7; experiment: Induction of cell cycle arrest in human MCF-7 cells assessed as accumulation of cells at G2/M phase cells at 1.207 uM incubated for 24 hrs by propidium iodide based flow cytometry analysis (reference value: 9.87%); type: functional
[10] = tested on: MCF7; experiment: Induction of apoptosis in human MCF7 cells assessed as total apoptotic cells at 1.207 uM incubated for 24 hrs by Annexin V-FITC/PI staining based flow cytometry analysis (reference value: 2.51%); type: functional
[11] = tested on: MCF7; experiment: Induction of apoptosis in human MCF7 cells assessed as necrotic cells at 1.207 uM incubated for 24 hrs by Annexin V-FITC/PI staining based flow cytometry analysis (reference value: 2.04%); type: functional
[12] = molecular target: Prostaglandin G/H synthase 1 (Homo sapiens, UniProt P23219)
Prostaglandin G/H synthase 1, sequence (P23219 whole entry): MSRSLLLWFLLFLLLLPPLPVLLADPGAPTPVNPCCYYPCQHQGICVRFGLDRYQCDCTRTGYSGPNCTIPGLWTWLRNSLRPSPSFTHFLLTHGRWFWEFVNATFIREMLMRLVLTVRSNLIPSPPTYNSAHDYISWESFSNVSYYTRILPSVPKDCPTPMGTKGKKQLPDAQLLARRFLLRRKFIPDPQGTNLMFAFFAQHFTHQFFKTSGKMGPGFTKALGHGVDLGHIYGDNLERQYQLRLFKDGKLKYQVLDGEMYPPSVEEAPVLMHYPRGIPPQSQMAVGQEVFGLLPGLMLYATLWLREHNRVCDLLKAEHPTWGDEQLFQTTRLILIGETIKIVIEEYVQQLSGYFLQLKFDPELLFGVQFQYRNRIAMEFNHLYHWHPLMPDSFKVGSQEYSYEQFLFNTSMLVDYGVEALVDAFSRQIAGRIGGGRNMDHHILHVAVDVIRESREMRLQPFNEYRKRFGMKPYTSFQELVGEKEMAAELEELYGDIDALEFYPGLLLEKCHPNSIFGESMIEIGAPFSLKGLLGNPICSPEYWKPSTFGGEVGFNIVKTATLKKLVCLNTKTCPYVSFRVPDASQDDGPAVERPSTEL
Description: Inhibition of COX-1 (unknown origin) using arachidonic acid as substrate by fluorescence based analysis

[13] = tested on: MCF7; experiment: Induction of apoptosis in human MCF7 cells assessed as early apoptotic cells at 1.207 uM incubated for 24 hrs by Annexin V-FITC/PI staining based flow cytometry analysis (reference value: 0.36%); type: functional

SMILES | IC50 [1] [µM] | IC50 [2] [µM] | IC50 [3] [µM] | other results
Cc1c(-c2nnc(S)n2N=Cc2ccc(F)cc2)cnn1-c1ccccc1 | 16.9 | 12 | 7.27 | 
COc1ccc(C=Nn2c(S)nnc2-c2cnn(-c3ccccc3)c2C)cc1OC | 20.2 | 13.1 | 18.6 | 
Cc1c(-c2nnc(S)n2N=Cc2ccc([N+](=O)[O-])cc2)cnn1-c1ccc(S(C)(=O)=O)cc1 | 4.95 | 13 | 4.89 | 
COc1cccc(C=Nn2c(S)nnc2-c2cnn(-c3ccc(S(C)(=O)=O)cc3)c2C)c1OC | 22 | 28.1 | 13.5 | 
COc1cccc(C=Nn2c(S)nnc2-c2cnn(-c3ccccc3)c2C)c1OC | 41.6 | 73.7 | 14.8 | 
Cc1c(-c2nnc(S)n2N=Cc2ccc(N(C)C)cc2)cnn1-c1ccc(S(C)(=O)=O)cc1 | 10.5 | 13.9 | 31.8 | 
C=CC(=O)Nc1cc(Nc2nccc(-c3cn(C)c4ccccc34)n2)c(OC)cc1N(C)CCN(C)C [OSIMERTINIB] | 3.45 | 0.75 | 1.66 | 
Cc1ccc(-c2cc(C(F)(F)F)nn2-c2ccc(S(N)(=O)=O)cc2)cc1 [CELECOXIB] | 16.5 | 41.5 | 21.7 | 
COc1cc(C=Nn2c(S)nnc2-c2cnn(-c3ccc(S(C)(=O)=O)cc3)c2C)cc(OC)c1OC | 48.5 | 51.5 | 35.9 | 
Cc1c(-c2nnc(S)n2N=Cc2ccc(F)cc2)cnn1-c1ccc(S(C)(=O)=O)cc1 | 1.2 | 5.14 | 14.8 | Activity [4]: 13.21%; IC50 [5]: 0.121 µM; IC50 [6]: 0.076 µM; Activity [7]: 9.57%; Activity [8]: 47.64%; Activity [9]: 39.15%; Activity [10]: 38.67%; Activity [11]: 6.29%; IC50 [12]: 20.1 µM; Activity [13]: 22.81%
COc1cc(C=Nn2c(S)nnc2-c2cnn(-c3ccccc3)c2C)cc(OC)c1OC | 33.2 | 22.5 | 17.2 | 
Cc1c(-c2nnc(S)n2N=Cc2ccc([N+](=O)[O-])cc2)cnn1-c1ccccc1 | 12.8 | 10.6 | 6.38 | 
COc1ccc(C=Nn2c(S)nnc2-c2cnn(-c3ccc(S(C)(=O)=O)cc3)c2C)cc1OC | 5.14 | 9.23 | 2.38 | IC50 [5]: 0.216 µM; IC50 [6]: 0.135 µM; IC50 [12]: 14.5 µM
Cc1c(-c2nnc(S)n2N=Cc2ccc(N(C)C)cc2)cnn1-c1ccccc1 | 7.46 | 2.93 | 3.78 | IC50 [5]: 0.423 µM; IC50 [6]: 0.764 µM; IC50 [12]: 36 µM
